Data taken from ChEMBL document CHEMBL6178023 (J Med Chem, 2025).
Values after ≈ are worked out from the molar mass of the structure shown. Active and inactive are the calls of the source. No cut-off for these calls is given here.

Key:
[1] = Aqueous solubility of compound in PBS at pH 7.4; format: physicochemical
MRC5 = test: Cytotoxicity against human MRC5 cells at 10 to 40 uM by Cell Titer Glo assay; format: toxicity, cell-based; details: mrc5, 40 µM, dose 10-40 µM
Chikungunya virus [2] = test: Inhibition of N-terminal 6-His/SUMO-tagged CHIKV 181/25 nsP2 extracted from Escherichia coli Rosetta 2 at 200 uM preincubated for 30 mins followed by ATP addition measured after 1 hr by ADP-Glo assay relative to control; details: time 90.0 min
Chikungunya virus [3] = test: Antiviral activity against CHIKV 181/25 expressing nLuc-capsid gene infected in human MRC5 cells assessed as inhibition of viral replication at 40 uM preincubated with cells for 1 hr followed by viral infection measured after 6 hrs post-infection by Nano-glo luciferase assay relative to control; format: functional; details: for inhibition: time 7.0 hrs; for inhibition at 40 µM: 181/25, MRC5, time 7 hrs
[4] = Aqueous solubility of compound; format: physicochemical; details: buffer
[5] = Selectivity ratio of pEC50 for antiviral activity against VEEV expressing nLuc to pEC50 for antiviral activity against CHIKV 181/25 expressing nLuc-capsid gene infected in human MRC5 cells; format: functional
Polyprotein P1234 [6] = biological target: T1, Polyprotein P1234 (Chikungunya virus (strain S27-African prototype) (CHIKV), UniProt Q8JUX6); test: Inhibition of N-terminal 6-His/SUMO-tagged CHIKV 181/25 nsP2 extracted from Escherichia coli Rosetta 2 preincubated for 30 mins followed by ATP addition measured after 1 hr by ADP-Glo assay
T1 sequence (Q8JUX6 536-1333 limits assumed): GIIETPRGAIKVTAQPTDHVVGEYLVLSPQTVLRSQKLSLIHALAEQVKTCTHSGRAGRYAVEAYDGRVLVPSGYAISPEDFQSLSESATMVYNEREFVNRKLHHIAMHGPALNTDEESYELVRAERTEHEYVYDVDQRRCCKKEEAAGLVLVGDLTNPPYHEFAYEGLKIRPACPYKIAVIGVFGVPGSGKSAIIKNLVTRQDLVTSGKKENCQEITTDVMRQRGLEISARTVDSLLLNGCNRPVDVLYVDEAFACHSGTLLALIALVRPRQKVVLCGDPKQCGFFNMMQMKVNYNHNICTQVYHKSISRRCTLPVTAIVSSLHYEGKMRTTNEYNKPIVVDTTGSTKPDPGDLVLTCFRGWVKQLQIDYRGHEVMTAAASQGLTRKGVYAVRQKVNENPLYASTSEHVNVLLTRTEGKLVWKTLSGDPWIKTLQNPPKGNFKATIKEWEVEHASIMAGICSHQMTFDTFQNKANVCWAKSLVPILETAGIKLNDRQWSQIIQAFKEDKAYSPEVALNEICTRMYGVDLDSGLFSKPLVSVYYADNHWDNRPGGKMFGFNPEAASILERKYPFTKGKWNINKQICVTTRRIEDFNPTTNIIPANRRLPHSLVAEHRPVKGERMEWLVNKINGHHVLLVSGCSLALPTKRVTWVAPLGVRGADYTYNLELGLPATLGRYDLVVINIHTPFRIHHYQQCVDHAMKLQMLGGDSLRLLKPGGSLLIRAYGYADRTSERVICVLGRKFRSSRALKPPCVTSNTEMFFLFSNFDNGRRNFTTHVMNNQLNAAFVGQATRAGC

Chikungunya virus [7] = test: Antiviral activity against CHIKV 181/25 expressing nLuc-capsid gene infected in human MRC5 cells assessed as reduction in viral replication preincubated with cells for 1 hr followed by viral infection measured after 6 hrs post-infection by Nano-glo luciferase assay; format: functional, organism-based; details: 181/25, MRC5, read-out: pEC50 (converted)
[8] = biological target: Polyprotein P1234 (Chikungunya virus (strain S27-African prototype) (CHIKV)) (UniProt Q8JUX6); test: Binding affinity to N-terminal 6-His/SUMO-tagged CHIKV 181/25 nsP2 extracted from Escherichia coli Rosetta 2 using fluorescein-labeled dsRNA template incubated for 30 mins by fluorescence polarization assay
Target sequence in this assay (Q8JUX6 whole entry): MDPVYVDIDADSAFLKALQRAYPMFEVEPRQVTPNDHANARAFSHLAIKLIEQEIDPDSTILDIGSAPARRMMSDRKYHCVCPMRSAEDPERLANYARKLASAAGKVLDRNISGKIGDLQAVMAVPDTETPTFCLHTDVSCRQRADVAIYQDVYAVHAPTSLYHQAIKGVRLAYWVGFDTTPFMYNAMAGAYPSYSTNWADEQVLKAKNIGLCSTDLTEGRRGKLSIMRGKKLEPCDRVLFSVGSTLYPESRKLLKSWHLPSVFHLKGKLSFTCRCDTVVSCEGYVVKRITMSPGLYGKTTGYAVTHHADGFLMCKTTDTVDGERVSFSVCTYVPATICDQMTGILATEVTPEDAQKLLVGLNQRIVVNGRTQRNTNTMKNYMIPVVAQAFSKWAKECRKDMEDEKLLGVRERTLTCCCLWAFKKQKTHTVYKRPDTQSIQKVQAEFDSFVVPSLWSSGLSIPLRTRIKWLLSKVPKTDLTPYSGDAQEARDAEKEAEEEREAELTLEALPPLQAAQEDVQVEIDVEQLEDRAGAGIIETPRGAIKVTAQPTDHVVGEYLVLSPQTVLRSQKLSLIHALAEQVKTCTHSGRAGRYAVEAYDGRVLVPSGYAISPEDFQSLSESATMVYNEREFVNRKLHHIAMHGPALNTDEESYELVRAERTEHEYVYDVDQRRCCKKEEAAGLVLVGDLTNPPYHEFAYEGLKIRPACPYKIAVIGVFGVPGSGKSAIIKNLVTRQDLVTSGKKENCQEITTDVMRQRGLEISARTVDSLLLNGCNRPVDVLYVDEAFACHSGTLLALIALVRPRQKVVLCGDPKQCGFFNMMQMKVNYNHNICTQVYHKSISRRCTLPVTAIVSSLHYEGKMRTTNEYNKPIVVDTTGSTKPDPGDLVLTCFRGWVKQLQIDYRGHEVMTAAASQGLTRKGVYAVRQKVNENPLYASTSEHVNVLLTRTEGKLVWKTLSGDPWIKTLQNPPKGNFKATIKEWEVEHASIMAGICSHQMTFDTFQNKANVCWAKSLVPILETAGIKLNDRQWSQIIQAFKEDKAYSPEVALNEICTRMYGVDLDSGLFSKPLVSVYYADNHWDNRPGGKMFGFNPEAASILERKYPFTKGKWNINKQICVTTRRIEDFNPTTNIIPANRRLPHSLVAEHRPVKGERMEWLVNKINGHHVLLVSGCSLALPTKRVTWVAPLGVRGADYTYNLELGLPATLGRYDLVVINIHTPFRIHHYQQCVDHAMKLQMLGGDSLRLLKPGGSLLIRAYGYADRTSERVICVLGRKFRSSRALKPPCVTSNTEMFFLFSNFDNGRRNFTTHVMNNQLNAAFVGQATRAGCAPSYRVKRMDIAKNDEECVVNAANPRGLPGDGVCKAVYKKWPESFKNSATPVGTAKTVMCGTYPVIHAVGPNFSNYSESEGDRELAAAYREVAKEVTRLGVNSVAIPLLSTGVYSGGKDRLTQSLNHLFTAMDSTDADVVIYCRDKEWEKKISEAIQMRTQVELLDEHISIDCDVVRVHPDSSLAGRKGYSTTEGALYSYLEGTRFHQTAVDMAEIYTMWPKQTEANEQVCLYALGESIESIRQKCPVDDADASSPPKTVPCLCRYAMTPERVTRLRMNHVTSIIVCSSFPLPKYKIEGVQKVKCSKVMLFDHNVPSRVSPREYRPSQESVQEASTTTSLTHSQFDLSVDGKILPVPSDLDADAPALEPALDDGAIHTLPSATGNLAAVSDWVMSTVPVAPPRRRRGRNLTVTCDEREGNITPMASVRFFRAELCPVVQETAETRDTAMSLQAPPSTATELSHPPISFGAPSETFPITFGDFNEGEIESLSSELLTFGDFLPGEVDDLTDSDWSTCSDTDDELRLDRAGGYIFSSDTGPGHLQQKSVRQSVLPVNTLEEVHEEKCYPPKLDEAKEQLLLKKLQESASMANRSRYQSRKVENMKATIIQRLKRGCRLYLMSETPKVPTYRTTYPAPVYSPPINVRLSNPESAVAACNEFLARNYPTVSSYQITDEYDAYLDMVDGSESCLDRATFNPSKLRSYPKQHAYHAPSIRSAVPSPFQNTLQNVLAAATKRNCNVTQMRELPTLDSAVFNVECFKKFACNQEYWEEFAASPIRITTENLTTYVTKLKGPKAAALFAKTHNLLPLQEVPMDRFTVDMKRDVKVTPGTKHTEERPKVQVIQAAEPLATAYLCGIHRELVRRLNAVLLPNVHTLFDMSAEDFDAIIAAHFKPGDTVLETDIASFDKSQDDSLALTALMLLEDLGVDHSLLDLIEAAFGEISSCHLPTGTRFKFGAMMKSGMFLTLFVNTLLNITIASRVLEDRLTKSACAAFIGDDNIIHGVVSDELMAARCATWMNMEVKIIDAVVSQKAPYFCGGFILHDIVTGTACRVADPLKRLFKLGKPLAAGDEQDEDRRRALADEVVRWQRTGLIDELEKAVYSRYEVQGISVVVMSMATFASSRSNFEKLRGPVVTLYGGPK

[9] = biological target: Polyprotein P1234 (Chikungunya virus (strain S27-African prototype) (CHIKV)) (UniProt Q8JUX6); test: Binding affinity to N-terminal 6-His/SUMO-tagged CHIKV 181/25 nsP2 extracted from Escherichia coli Rosetta 2 assessed as decrease in Vmax up to 2.5 uM in presence of [alpha-32P]-ATP by TLC method
Target sequence in this assay (Q8JUX6 whole entry): as above

Chikungunya virus [10] = test: (§1) Anti-viral activity against CHIKV infected in human NHDF cells assessed as reduction in viral titer incubated with cells for 1 hr followed by viral infection for 2 hrs and subsequent replacement of fresh media with compound measured after 24 hrs post-infection by extracting viral supernatant from cells and transferring supernatant to African geen monkey Vero cells for measuring plaque formation; format: functional, organism-based; details: dose 0.01-100 µM, time 25.0 hrs
Mayaro virus [11] = test: as §1, with “MAYV” for “CHIKV”; format: functional, organism-based; details: dose 0.01-100 µM, time 25.0 hrs
[12] = biological target: Polyprotein P1234 (Chikungunya virus (strain S27-African prototype) (CHIKV)) (UniProt Q8JUX6); test: (§2) Inhibition of N-terminal 6-His/SUMO-tagged CHIKV 181/25 nsP2 extracted from Escherichia coli Rosetta 2 assessed as decrease in nsP2 helicase activity in presence of RNA duplex composed of 39mer loading RNA strand/19mer displaced RNA strand by gel electrophoresis; details: dose 0.01-100 µM
Target sequence in this assay (Q8JUX6 536-1333 limits assumed): as the sequence (Q8JUX6 536-1333 limits assumed) above

Polyprotein P1234 [13] = biological target: T1, Polyprotein P1234; test: as §2
[14] = biological target: Polyprotein P1234 (Chikungunya virus (strain S27-African prototype) (CHIKV)) (UniProt Q8JUX6); test: Inhibition of N-terminal 6-His/SUMO-tagged CHIKV 181/25 nsP2 extracted from Escherichia coli Rosetta 2 assessed as decrease in nsP2 ATPase activity up to 100 uM measured for 5 to 10 mins in presence of [alpha-32P]-ATP by TLC method; details: time 5-10 min
Target sequence in this assay (Q8JUX6 whole entry): as the sequence (Q8JUX6 whole entry) above

[15] = biological target: Polyprotein P1234 (Chikungunya virus (strain S27-African prototype) (CHIKV)) (UniProt Q8JUX6); test: Binding affinity to N-terminal 6-His/SUMO-tagged CHIKV 181/25 nsP2 extracted from Escherichia coli Rosetta 2 assessed as unchanged Km up to 2.5 uM in presence of [alpha-32P]-ATP by TLC method
Target sequence in this assay (Q8JUX6 whole entry): as above

Mayaro virus [16] = test: as §1, with “activity against MAYV infected in” for “activity against CHIKV infected in”, “assessed as log reduction in” for “assessed as reduction in”, “viral titer at 0.01 to 100 uM incubated with” for “viral titer incubated with”; format: functional; details: dose 0.01-100 µM; time 25 hrs

SMILES | solubility kinetic [1] [µM] | Activity (MRC5) | inhibition (Chikungunya virus [2]) | inhibition (Chikungunya virus [3]) | IC50 (Polyprotein P1234 [6]) [µM] | EC50 (Chikungunya virus [7]) [µM] | inhibition at 40 µM (Chikungunya virus [3]) [%] | other results
CN(C)S(=O)(=O)NCC1CCOC2(CCN(C(=O)C(=O)c3ccccc3)CC2)C1 (stereo not drawn) | 170 (≈ 72 µg/mL) | Non-toxic | inactive | inactive |  |  |  | 
CS(=O)(=O)NCC1CCOC2(CCN(C(=O)C3(c4ccccc4)CCCC3)CC2)C1 (stereo not drawn) |  | Non-toxic | 40% |  | > 39.8 | 3.16 |  | solubility [4]: 240 µM (≈ 104 µg/mL); Ratio [5]: 10
NCC1CCOC2(CCN(C(=O)C3(c4ccccc4)CCCC3)CC2)C1 (stereo not drawn) | 160 (≈ 57 µg/mL) | Non-toxic | inactive |  |  | > 39.8 | 60 | 
CN(C)S(=O)(=O)NCC1CCOC2(CCN(C(=O)C3(c4ccccn4)CCCC3)CC2)C1 (stereo not drawn) |  | Non-toxic | 40% |  | > 39.8 | > 39.8 | 70 | 
NCC1(O)CCOC2(CCN(C(=O)C3(c4ccccc4)CCCC3)CC2)C1 (stereo not drawn) | 170 (≈ 63.3 µg/mL) | Non-toxic | inactive |  |  | > 39.8 | 50 | 
CS(=O)(=O)NCC1CCOC2(CCN(C(=O)C3(c4ccc(Cl)cc4)CCCC3)CC2)C1 (stereo not drawn) |  | Non-toxic | inactive |  |  | > 39.8 | 70 | 
CS(=O)(=O)NCC1CCOC2(CCN(C(=O)Cc3ccccc3)CC2)C1 (stereo not drawn) | 200 (≈ 76.1 µg/mL) | Non-toxic | inactive | inactive |  |  |  | 
O=C(N1CCC2(CC1)CC(CN1CCCCS1(=O)=O)CCO2)C1(c2ccccc2)CCCC1 (stereo not drawn) | > 220 | Non-toxic |  |  | 0.501 | 0.126 |  | Activity [8]: Active; Compound Did Not Involve Direct Displacement Of Rna Substrate Suggesting Allosteric Mechanism Of Helicase Inhibition; Activity [9]: Active; Activity (Chikungunya virus [10]): Dose-dependent-effect; Activity (Mayaro virus [11]): Dose-dependent-effect; inhibition [12]: Dose-dependent-effect; IC50 (Polyprotein P1234 [13]): 0.9 µM; inhibition [14]: Active; Ic50 Of Compound Was Same At Both # And # Mins; Activity [15]: Active; Activity (Mayaro virus [16]): 0.01 10^5No_unit
CNCC1CCOC2(CCN(C(=O)C3(c4ccccc4)CCCC3)CC2)C1 (stereo not drawn) | 170 (≈ 63 µg/mL) | Non-toxic | inactive |  |  | > 39.8 | 60 | 
CCCCCCOc1ccc(C(=O)NCC2CCOC3(CCN(C(=O)C4(c5ccccc5)CCCC4)CC3)C2)cc1 (stereo not drawn) | < 1 | Non-toxic | inactive |  |  | > 39.8 | 70 | 
CS(=O)(=O)NCC1CCOC2(CCN(C(=O)C3(c4ccccc4)CCC3)CC2)C1 (stereo not drawn) | 160 (≈ 67.3 µg/mL) | Non-toxic | inactive | inactive |  |  |  | 
Cc1ccnc(OC2CCOC3(CCN(C(=O)C4(c5ccccc5)CCCC4)CC3)C2)c1 (stereo not drawn) |  | Non-toxic | 40% |  | > 39.8 | 12.6 |  | solubility [4]: 14 µM (≈ 6.08 µg/mL); Ratio [5]: 10
CN(C)S(=O)(=O)NCC1CCOC2(CCN(C(=O)C3(c4ccccc4)CCCO3)CC2)C1 (stereo not drawn) | 200 (≈ 93.1 µg/mL) | Non-toxic | inactive | inactive |  |  |  | 
CS(=O)(=O)NCC1CCOC2(CCN(C(=O)C3(c4ccccc4)CCOCC3)CC2)C1 (stereo not drawn) | 190 (≈ 85.6 µg/mL) | Non-toxic | inactive | inactive |  |  |  | 
CN(C)S(=O)(=O)NCC1CCOC2(CCN(C(=O)C3(c4ccncc4)CCCC3)CC2)C1 (stereo not drawn) |  | Non-toxic | inactive | inactive |  |  |  | 
CC(C)(C(=O)N1CCC2(CC1)CC(CNS(C)(=O)=O)CCO2)c1ccccc1 (stereo not drawn) | 220 (≈ 89.9 µg/mL) | Non-toxic | 40% |  | > 39.8 | > 39.8 | 50 | 
O=C(N1CCC2(CC1)CC(CN1CCCCS1(=O)=O)CCO2)C1(c2ccc(F)cc2)CCCC1 (stereo not drawn) | 190 (≈ 93.6 µg/mL) | Non-toxic | 80% |  | > 39.8 | > 39.8 | 90 | 
CC1(C(=O)N2CCC3(CC2)CC(CNS(C)(=O)=O)CCO3)CCCC1 (stereo not drawn) |  | Non-toxic | inactive |  |  | > 39.8 | 40 | 
COc1ccc(C2(C(=O)N3CCC4(CC3)CC(CNS(C)(=O)=O)CCO4)CCCC2)cc1 (stereo not drawn) |  | Non-toxic | inactive | inactive |  |  |  | 
CC(C)(C)NC(=O)NCC1CCOC2(CCN(C(=O)C3(c4ccccc4)CCCC3)CC2)C1 (stereo not drawn) | 170 (≈ 77.5 µg/mL) | Non-toxic | 80% |  | > 39.8 | 10 |  | 
CN(C)S(=O)(=O)NCC1CCOC2(CCN(C(=O)C3(c4cccnc4)CCCC3)CC2)C1 (stereo not drawn) |  | Non-toxic | inactive |  |  | > 39.8 | 50 | 
Cc1ccc(C2(C(=O)N3CCC4(CC3)CC(CNS(C)(=O)=O)CCO4)CCCC2)cc1 (stereo not drawn) |  | Non-toxic | inactive | inactive |  |  |  | 
